According to US20060165814A1, “Amines, combination of amines and vanadium and amine vanadium salts for the treatment or prevention of dyslipidemia” (Genmedica Therapeutics SL, priority 2004, published 2006):

Key:
rat adipocytes = conditions: amine in combination with low concentrations of vanadate; cited from earlier work
[1] = tested on: streptozotocin-induced diabetic rats; assay: Subcutaneous chronic administration, plasma cholesterol in diabetic rats; format: in vivo, rat; conditions: subcutaneously infused for 28 days; B6V10 1.25 or 2.5 μmol/kg/day, V10 1.25 μmol/kg/day; streptozotocin (100 mg/kg) diabetic rats
Source text: FIG. 3A through 3D show plasma concentrations of total cholesterol (FIG. 3A), nonesterified cholesterol (FIG. 3B), esterified cholesterol (FIG. 3C) and HDL-cholesterol (FIG. 3D) measured in nondiabetic rats (C), streptozotocin-induced diabetic rats (Diab) or diabetic rats treated for 28 days with subcutaneously infused decanadate (V10, 1.25 μmol/kg/day) or hexaquis(benzylammonium) decavanadate (B6V10) at two different doses (1.25 μmol/kg/day or 2.5 μmol/kg/day). * indicates the existance of statistically significant differences from the Diab group at p<0.05.
Subcutaneous administration of hexaquis(benzylammonium) decavanadate was performed to determine the effect on altered plasma concentrations of cholesterol associated to diabetes. Diabetes was induced in rats by intravenous administration of a large dose of streptozotocin (100 mg/kg). Experimentally-induced Diabetes was associated with substantial increases in total plasma cholesterol and nonesterified cholesterol and a reduction in esterified cholesterol concentrations compared to nondiabetic rats (FIG. 3A). HDL-cholesterol concentrations were unaltered by diabetes […]. Under these conditions, subcutaneous treatment with different doses of hexaquis(benzylammonium) decavanadate reduced plasma concentrations of total cholesterol and nonesterified cholesterol and increased esterified cholesterol concentrations so no differences between control and hexaquis(benzylammonium) decavanadate-treated rats were detectable (FIG. 3C).

[2] = tested on: streptozotocin-induced diabetic rats; assay: Subcutaneous chronic administration, plasma triglyceride and free fatty acids in diabetic rats; format: in vivo, rat; conditions: subcutaneously infused for 28 days; B6V10 1.25 or 2.5 μmol/kg/day, V10 1.25 μmol/kg/day; streptozotocin (100 mg/kg) diabetic rats
Source text: FIG. 2A though 2D are bar graphs showing plasma concentrations of insulin (FIG. 2A), glucose (FIG. 2B), free fatty acids (FIG. 2C) and triglycerides (FIG. 2D) measured in nondiabetic rats (C), streptozotocin-induced diabetic rats (Diab) or diabetic rats treated for 28 days with subcutaneously infused decanadate (V10, 1.25 μmol/kg/day) or hexaquis(benzylammonium) decavanadate (B6V10) at two different doses (1.25 μmol/kg/day or 2.5 μmol/kg/day). * indicates the existance of statistically significant differences from the Diab group at p<0.05.
Subcutaneous administration of hexaquis(benzylammonium) decavanadate was tested to determine whether it ameliorated the dyslipidemia associated with diabetes. Diabetes was induced in rats by intravenous administration of a large dose of streptozotocin (100 mg/kg), causing a complete disappearance of plasma insulin and very high concentrations of plasma glucose (FIGS. 2A and 2B). Induction of diabetes was also associated with substantial increases in plasma free fatty acid and triglyceride concentrations compared to nondiabetic rats (FIGS. 2C and 2D). Under these conditions, subcutaneous treatment with different doses of hexaquis(benzylammonium) decavanadate normalized plasma concentrations of free fatty acids and triglycerides so that no differences between control and hexaquis(benzylammonium) decavanadate-treated rats were detectable (FIGS. 2C and 2D).

[3] = tested on: streptozotocin-induced diabetic rats; assay: Oral chronic administration, plasma cholesterol in diabetic rats; format: in vivo, rat; conditions: single daily oral dose for 17 days, 5 μmol/kg/day day 0-7 and 10 μmol/kg/day day 8-17
Source text: FIG. 1 is a bar graph of the plasma concentration of cholesterol (Ch) (expressed in mmol/L) measured in nondiabetic rats (C), streptozotocin-induced diabetic rats (D) or diabetic rats treated for 17 days with a single daily oral dose of hexaquis(benzylammonium) decavanadate (5 μmol/kg/day between day 0 and day 7 and 10 μmol/kg/day from day 8 to day 17 of treatment) (BV). Cholesterol concentrations in the D group were statistically significant from the C group at p<0.05.
Oral administration of hexaquis(benzylammonium) decavanadate was tested to determine whether it ameliorated dyslipidemia associated to diabetes. Diabetes was induced in rats by intravenous administration of streptozotocin, causing a substantial increase in plasma cholesterol concentrations compared to nondiabetic rats (FIG. 1).

Row | Molecule | glucose transport (rat adipocytes) | plasma concentration of esterified cholesterol [1] | plasma concentration of nonesterified cholesterol [1] | plasma concentration of total cholesterol [1] | plasma concentration of free fatty acids [2] | plasma concentration of triglycerides [2] | plasma cholesterol levels [3]
1 | NCc1ccccc1 [benzylamine] | stimulates glucose transport | – | – | – | – | – | –
2 | [O]=[V]([O-])([O-])[O][V]1(=[O])[O][V]2(=[O])[O][V](=[O])([O][V](=[O])([O-])[O-])[O][V](=[O])([O]2)[O][V]2(=[O])[O][V](=[O])([O][V](=[O])([O-])[O-])[O][V](=[O])([O]1)[O]2 (stereo not shown) [decavanadate, reference compound] | – | not significantly different | not significantly different | significant reduction | did not alter | did not alter | –
3 | NCCc1ccc(O)cc1 [tyramine] | stimulates glucose transport | – | – | – | – | – | –
4 | hexaquis(benzylammonium) decavanadate | – | increased | reduced | reduced | normalized | normalized | substantially reduced
